This assay has as its target T1, flag-tagged HIF1α (AA 786-826) / His6-tagged p300 (AA 323-423) complex (Homo sapiens, UniProt Q09472).
T1 construct: His6-tagged p300 (AA 323-423); made in house; host or cells: E. coli (pETDuet vector)
Briefly: HIF1α p300 displacement assay (TR FRET, +CHAPS). Type of assay: binding. Conditions: read-out: IC50 (nM) (HIF1α_p300 Displacement + CHAPS). As for the experimental part:
The ability of peptides to displace HIF1α c-terminal trans-activation domain from p300-CH was measured by a TR FRET assay. A complex of flag-tagged HIF1α (AA 786-826) and His6-tagged p300 (AA 323-423) was co-expressed using pETDuet vector (EMDMillipore, Bellrica Mass.) and purified from E. coli in the presence of 0.1 mM ZnSO4. The complex was diluted to 300 nM final in complete assay media and competitor peptides were added. The complete assay media contained 150 mM NaCl (Sigma +S5150 or equivalent), 20 mM HEPES pH 7.4 (Boston Bioproducts, Ashland, Mass.; #BB-2076), 7.5 mM CHAPS (Thermo #28300 or equivalent), and 1 mM DTT. Protein and peptide were incubated at room temperature for 1 hour before the addition of anti-Flag-K and anti-6×HIS-D2 (CisBio, Bedford Mass.) HTRF reconstitution buffer (50 mM Phosphate pH 7, 0.8 Potassium Flouride, BSA 0.2%)^1 to a final concentration of 0.5 μM and 4 nM respectively. The reaction continued for an additional two hours at room temperature. The reaction was read on a TECAN F500 plate reader with settings recommended by CisBio. The ratio of donor to acceptor fluorescence was calculated. The resulting data was analyzed with Graphpad Prism 5.0. IC50 values were calculated for both proteins using the One Site Fit-LogIC50 equation and presented in the column “IC50 (nM) (HIF1α_p300 Displacement+CHAPS)” of Table 6. ^1 Cisbio USA, Bedford, Mass.; 61HISDLB (lot 007A), 61FG2KLB (024A), HTRF Buffer (62RB3RDF)

Bridge positions count the residues as written; N and C are the ends. Square brackets hold non-standard residues; d marks the D form. Peptide text beside a SMILES is read from it. Ala(3-Me-diazirin-3-yl) = CC1(C[C@H](N)C(=O)O)N=N1; R8 = C=CCCCCCC[C@@](C)(N)C(=O)O; S5 = C=CCCC[C@](C)(N)C(=O)O; Nle = CCCC[C@H](N)C(=O)O

In the case of `CCCC[C@H](NC(=O)[C@H](CCC(=O)O)NC(=O)[C@@H](NC(=O)[C@@H](NC(=O)[C@H](CC(C)C)NC(=O)[C@]1(C)CCCC=CCCC[C@](C)(NC(=O)[C@H](CCC(=O)O)NC(=O)[C@H](CC(=O)O)NC(=O)[C@@H](NC(=O)[C@H](Cc2ccccc2)NC(=O)[C@H](CCCCN)NC(C)=O)[C@@H](C)CC)C(=O)N[C@@H](C(C)C)C(=O)N[C@@H](CC(C)C)C(=O)N[C@@H](CCCC)C(=O)N1)C(C)C)[C@@H](C)CC)C(=O)N[C@@H](C)C(=O)N[C@@H](CC(C)C)C(=O)N[C@@H](CCCCN)C(N)=O` [SP-136] (Ac-KFIDE[S5]VL[Nle][S5]LVIE[Nle]ALK-NH2; staple 6-10), the IC50 is greater than 700 nM.

In the case of `CSCC[C@@H]1NC(=O)[C@H](CC(C)C)NC(=O)[C@H](C(C)C)NC(=O)[C@](C)(NC(=O)[C@H](CCC(=O)O)NC(=O)[C@@H](NC(=O)[C@H](CC(C)C)NC(C)=O)[C@@H](C)O)CCCCCCC=CCCC[C@@](C)(C(=O)N[C@@H](CO)C(=O)N[C@@H](C)C(=O)N[C@@H](C)C(N)=O)NC(=O)[C@H](C(C)C)NC(=O)[C@H](CC(C)C)NC(=O)[C@H](CO)NC1=O` [SP-181] (Ac-LTE[R8]VLMSLV[S5]SAA-NH2; staple 4-11), the half-maximal inhibitory concentration (IC50) is greater than 700 nM. For `CCCC[C@@H]1NC(=O)[C@H](CC(C)C)NC(=O)[C@](C)(NC(=O)[C@H](CCC(=O)O)NC(=O)[C@H](CCC(=O)O)NC(=O)[C@H](CC(=O)O)NC(=O)[C@@H](NC(=O)[C@H](CC(N)=O)NC(=O)[C@@H](NC(=O)[C@H](CCC(N)=O)NC(=O)[C@H](CC(=O)O)NC(=O)[C@H](CC(C)C)NC(=O)[C@H](C)NC(=O)[C@H](CCCNC(=N)N)NC(=O)[C@]2(C)CCCC=CCCC[C@](C)(NC(=O)[C@H](CCC(N)=O)NC(=O)[C@H](CC(C)C)NC(=O)[C@H](CC(C)C)NC(C)=O)C(=O)N[C@@H](CCC(=O)O)C(=O)N[C@@H](CCC(=O)O)C(=O)N[C@@H](CC(C)C)C(=O)N2)C(C)C)[C@@H](C)CC)CCCCCCC=CCCC[C@@](C)(C(=O)N[C@@H](CCCC)C(=O)NCC(N)=O)NC(=O)[C@H]([C@@H](C)CC)NC(=O)[C@H](C(C)C)NC(=O)[C@H](CC(C)C)NC(=O)[C@H](CO)NC1=O` [SP-329] (Ac-LLQ[S5]EEL[S5]RALDQVNIDEE[R8]L[Nle]SLVI[S5][Nle]G-NH2; staple 4-8, 20-27) the value was greater than 700 nM. Then `CCCC[C@@H]1NC(=O)[C@](C)(NC(=O)[C@@H](NC(=O)[C@H](CCC(=O)O)NC(=O)[C@H](CCC(=O)O)NC(=O)[C@H](CC(=O)O)NC(=O)[C@@H](NC(=O)[C@H](CC(N)=O)NC(=O)[C@@H](NC(=O)[C@]2(C)CCCC=CCCCCCC[C@@](C)(NC(=O)[C@H](CCC(=O)O)NC(=O)CNC(=O)[C@H](CCC(N)=O)NC(=O)[C@H](CC(C)C)NC(=O)[C@H](CC(C)C)NC(C)=O)C(=O)N[C@@H](CC(C)C)C(=O)N[C@@H](CC(C)C)C(=O)N[C@@H](CCCNC(=N)N)C(=O)N[C@@H](C)C(=O)N[C@@H](CC(C)C)C(=O)N[C@@H](CC(=O)O)C(=O)N2)C(C)C)[C@@H](C)CC)C(C)C)CCCCCCC=CCCC[C@@](C)(C(=O)NCC(N)=O)NC(=O)[C@H](CCC(=O)O)NC(=O)[C@H]([C@@H](C)CC)NC(=O)[C@H](C(C)C)NC(=O)[C@H](CC(C)C)NC(=O)[C@H](CO)NC1=O` [SP-317] (Ac-LLQGE[R8]LLRALD[S5]VNIDEEV[R8][Nle]SLVIE[S5]G-NH2; staple 6-13, 21-28), with greater than 700 nM; and `CC[C@H](C)[C@H](NC(=O)[C@H](Cc1ccccc1)NC(C)=O)C(=O)N[C@@H](CC(=O)O)C(=O)N[C@@H](CCC(=O)O)C(=O)N[C@]1(C)CCCCCCC=CCCC[C@@](C)(C(=O)N[C@@H](CCC(=O)O)C(=O)N[C@@H](CCSC)C(=O)N[C@@H](C)C(=O)N[C@@H](C)C(=O)N[C@@H](C)C(N)=O)NC(=O)[C@H](C(C)C)NC(=O)[C@H](CC(C)C)NC(=O)[C@H](CO)NC(=O)[C@H](CCSC)NC(=O)[C@H](CC(C)C)NC(=O)[C@H](C(C)C)NC1=O` [SP-179] (Ac-FIDE[R8]VLMSLV[S5]EMAAA-NH2; staple 5-12), with greater than 700 nM; and `CCCC[C@H](NC(=O)[C@H](CC(C)C)NC(=O)[C@@H](NC(=O)[C@H](C)NC(=O)[C@H](CCC(=O)O)NC(=O)[C@H](C)NC(=O)[C@@H](NC(=O)[C@H](Cc1ccccc1)NC(C)=O)[C@@H](C)CC)C(C)C)C(=O)N[C@@]1(C)CCCC=CCCC[C@@](C)(C(=O)N[C@@H](CCCC)C(=O)N[C@@H](C)C(=O)N[C@@H](CC(C)C)C(=O)N[C@@H](CC(=O)O)C(=O)N[C@@H](C)C(=O)N[C@H](C(N)=O)[C@@H](C)CC)NC(=O)[C@H]([C@@H](C)CC)NC(=O)[C@H](C(C)C)NC(=O)[C@H](CC(C)C)NC1=O` [SP-222] (Ac-FIAEAVL[Nle][S5]LVI[S5][Nle]ALDAI-NH2; staple 9-13), with 200 to 400 nM. Consider `CCCC[C@H](NC(=O)[C@H](CCC(=O)O)NC(=O)[C@@H](NC(=O)[C@@H](NC(=O)[C@H](CC(C)C)NC(=O)[C@]1(C)CCCC=CCCC[C@](C)(NC(=O)[C@H](CCC(=O)O)NC(=O)[C@H](CC(=O)O)NC(=O)[C@@H](NC(=O)[C@H](Cc2ccccc2)NC(C)=O)[C@@H](C)CC)C(=O)N[C@@H](C(C)C)C(=O)N[C@@H](CC(C)C)C(=O)N[C@@H](CCCC)C(=O)N1)C(C)C)[C@@H](C)CC)C(=O)N[C@@H](C)C(=O)N[C@@H](CC(C)C)C(=O)N[C@@H](CCCCN)C(=O)N[C@@H](CCCCN)C(N)=O` [SP-133] (Ac-FIDE[S5]VL[Nle][S5]LVIE[Nle]ALKK-NH2; staple 5-9), for which the IC50 is greater than 700 nM. Take `CCCC[C@@H]1NC(=O)[C@H](CC(C)C)NC(=O)[C@H](C(C)C)NC(=O)[C@](C)(NC(=O)[C@H](CCC(=O)O)NC(=O)[C@H](CC(=O)O)NC(=O)[C@@H](NC(=O)[C@H](Cc2ccccc2)NC(C)=O)[C@@H](C)CC)CCCCCCC=CCCC[C@@](C)(C(=O)N[C@@H](CCC(=O)O)C(=O)N[C@@H](CCSC)C(=O)NCC(N)=O)NC(=O)[C@H](C(C)C)NC(=O)[C@H](CC(C)C)NC(=O)[C@H](CO)NC1=O` [SP-185] (Ac-FIDE[R8]VL[Nle]SLV[S5]EMG-NH2; staple 5-12): the concentration for half-maximal inhibition (IC50) was greater than 700 nM. Then `CCCC[C@H](NC(=O)[C@H](CCC(=O)O)NC(=O)[C@@H](NC(=O)[C@@H](NC(=O)[C@H](CC(C)C)NC(=O)[C@]1(C)CCCC=CCCC[C@](C)(NC(=O)[C@H](CCC(=O)O)NC(=O)[C@H](CC(=O)O)NC(=O)[C@@H](NC(=O)[C@H](Cc2ccccc2)NC(=O)[C@H](CCCCN)NC(=O)[C@H](CCCCN)NC(C)=O)[C@@H](C)CC)C(=O)N[C@@H](C(C)C)C(=O)N[C@@H](CC(C)C)C(=O)N[C@@H](CCCC)C(=O)N1)C(C)C)[C@@H](C)CC)C(=O)N[C@@H](C)C(=O)N[C@@H](CC(C)C)C(N)=O` [SP-135] (Ac-KKFIDE[S5]VL[Nle][S5]LVIE[Nle]AL-NH2; staple 7-11), with greater than 700 nM; and “SP-72 (Ac-FIDEEVL[Nle][S5]L[Ala(3-Me-diazirin-3-yl)]I[S5][Nle]ALDRI-NH2; staple 9-13)”, with 400 to 700 nM; and `CCCC[C@H](NC(=O)[C@H](CCC(=O)O)NC(=O)[C@@H](NC(=O)[C@@H](NC(=O)[C@H](CC(C)C)NC(=O)[C@]1(C)CCCC=CCCC[C@](C)(NC(=O)[C@H](CCC(=O)O)NC(=O)[C@H](CC(=O)O)NC(=O)[C@@H](NC(=O)[C@H](Cc2ccccc2)NC(C)=O)[C@@H](C)CC)C(=O)N[C@@H](C(C)C)C(=O)N[C@@H](CC(C)C)C(=O)N[C@@H](CCCC)C(=O)N1)C(C)C)[C@@H](C)CC)C(=O)N[C@@H](C)C(=O)N[C@@H](CC(C)C)C(=O)N[C@@H](CCCCN)C(N)=O` [SP-132] (Ac-FIDE[S5]VL[Nle][S5]LVIE[Nle]ALK-NH2; staple 5-9), with greater than 700 nM.

The values above are taken from patent US20190225650A1, “PEPTIDOMIMETIC MACROCYCLES AND USE THEREOF IN REGULATING HIF1ALPHA” (AILERON THERAPEUTICS, INC., priority 2013, published 2019).
